The term EC50 denotes the concentration at which the effect is half-maximal.

30 molecules from patent US8846733B2, “Oxazolyl-methylether derivatives as ALX receptor agonists” (Actelion Pharmaceuticals Ltd., priority 2010, dated 2014) can be followed below.

For one assay, the target named is T1, recombinant human ALX receptor (Homo sapiens, UniProt P25090).
T1 construct: expressed in transfected cells; host or cells: HEK293 (HEK293-hALXR-Gα16)
T1 sequence (P25090 1-351): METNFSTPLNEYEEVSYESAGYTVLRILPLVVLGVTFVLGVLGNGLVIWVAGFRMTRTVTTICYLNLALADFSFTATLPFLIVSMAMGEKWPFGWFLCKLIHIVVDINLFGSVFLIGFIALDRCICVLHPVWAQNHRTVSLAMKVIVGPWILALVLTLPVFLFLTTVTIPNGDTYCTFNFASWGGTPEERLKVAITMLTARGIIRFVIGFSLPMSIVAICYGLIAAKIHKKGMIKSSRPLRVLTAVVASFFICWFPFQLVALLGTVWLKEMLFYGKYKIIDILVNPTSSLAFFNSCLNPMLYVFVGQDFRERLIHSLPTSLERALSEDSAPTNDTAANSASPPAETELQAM
Kind of assay: Intracellular calcium measurements (FLIPR), ALX receptor agonistic activity. Conditions: HEK293-hALXR-Gα16 cells; Table 1, exemplified compounds. The assay is classed as cell-based. On the procedure: The ALX receptor agonistic activity of the compounds of formula (I) is determined in accordance with the following experimental method.
Intracellular Calcium Measurements:
Cells expressing recombinant human ALX receptor and the G-protein Gα16 (HEK293-hALXR-Gα16) were grown to 80% confluency in Growing Medium (GM). Cells were detached from culture dishes with a cell dissociation buffer (Invitrogen, 13151-014), and collected by centrifugation at 1,000 rpm at rt for 5 min in Assay Buffer (AB) (equal parts of Hank's BSS (Gibco, 14065-049) and DMEM without Phenol Red (Gibco, 11880-028)). After 60 min incubation at 37° C. under 5% CO2 in AB supplemented with 1 μM Fluo-4 (AM) (Invitrogen, F14202) and 20 mM HEPES (Gibco, 15630-056), the cells were washed and resuspended in AB. They were then seeded onto 384-well FLIPR assay plates (Greiner, 781091) at 50,000 cells in 70 μl per well and sedimented by centrifugation at 1,000 rpm for 1 min. Stock solutions of test compounds were made up at a concentration of 10 mM in DMSO, and serially diluted in AB to concentrations required for activation dose response curves. WKYMVm (Phoenix Peptides) was used as a reference agonist. A FLIPR Tetra instrument (Molecular Devices) was operated according to the manufacturer's standard instructions, adding 4 μl of test compound dissolved at 10 mM in DMSO and diluted prior to the experiment in assay buffer to obtain the desired final concentration. Changes in fluorescence were monitored before and after the addition of test compounds at lex=488 nm and lem=540 nm. Emission peak values above base level after compounds addition were exported after base line subtraction. Values were normalized to high-level control (WKYMVm compound, 10 nM final concentration) after subtraction of the base line value (AB addition).
(A change in cytosolic calcium serves as a functional read-out for many receptors and channels.)
Consider `COCc1coc(Cn2ncc(NC(=O)c3nc(C)oc3-c3cccc(OC(F)(F)F)c3)n2)n1` [Example 11, N-(2-((4-(Methoxymethyl)oxazol-2-yl)methyl)-2H-1,2,3-triazol-4-yl)-2-methyl-5-(3-(trifluoromethoxy)phenyl)oxazole-4-carboxamide], for which the EC50 worked out at 7.4 nM.
Same read-out and setting: then `COCc1coc(Cn2ncc(NC(=O)c3nc(C4CC4)oc3-c3cccc(C)c3)n2)n1` [Example 12, 2-Cyclopropyl-N-(2-((4-(methoxymethyl)oxazol-2-yl)methyl)-2H-1,2,3-triazol-4-yl)-5-(m-tolyl)oxazole-4-carboxamide], with 11.6 nM; and `COCc1coc(Cn2ncc(NC(=O)c3ncoc3-c3cccc(Cl)c3)n2)n1` [Example 6, 5-(3-Chlorophenyl)-N-(2-((4-(methoxymethyl)oxazol-2-yl)methyl)-2H-1,2,3-triazol-4-yl)oxazole-4-carboxamide], with 4 nM.
Same read-out and setting: then `COCc1coc(Cn2ncc(NC(=O)c3nc(C)oc3-c3cccc(F)c3)n2)n1` [Example 9, 5-(3-Fluorophenyl)-N-(2-((4-(methoxymethyl)oxazol-2-yl)methyl)-2H-1,2,3-triazol-4-yl)-2-methyloxazole-4-carboxamide], with 3.7 nM; and `COCc1coc(Cn2ncc(NC(=O)c3ncoc3-c3cccc(OC)c3)n2)n1` [Example 7, N-(2-((4-(Methoxymethyl)oxazol-2-yl)methyl)-2H-1,2,3-triazol-4-yl)-5-(3-methoxyphenyl)oxazole-4-carboxamide], with 17.5 nM.
The same measure, in the same setting: then `COC(C)(C)c1coc(Cn2ncc(NC(=O)c3nc(C)oc3-c3cccc(C)c3)n2)n1` [Example 1, N-(2-((4-(2-Methoxypropan-2-yl)oxazol-2-yl)methyl)-2H-1,2,3-triazol-4-yl)-2-methyl-5-(m-tolyl)oxazole-4-carboxamide], with 6.6 nM.
In the case of `COCc1coc(Cn2ncc(NC(=O)c3ncoc3-c3cccc(C)c3)n2)n1` [Example 10, N-(2-((4-(Methoxymethyl)oxazol-2-yl)methyl)-2H-1,2,3-triazol-4-yl)-5-(m-tolyl)oxazole-4-carboxamide], the EC50 came to 4.6 nM.
Regarding `CCOCc1coc(Cn2ncc(NC(=O)c3ncoc3-c3ccccc3)n2)n1` [Example 15, N-(2-((4-(ethoxymethyl)oxazol-2-yl)methyl)-2H-1,2,3-triazol-4-yl)-5-phenyloxazole-4-carboxamide], the EC50 stood at 8.6 nM.
Same read-out and setting: then `COCc1coc(Cn2ncc(NC(=O)c3nc(C)oc3-c3cccc(C(F)(F)F)c3)n2)n1` [Example 5, N-(2-((4-(Methoxymethyl)oxazol-2-yl)methyl)-2H-1,2,3-triazol-4-yl)-2-methyl-5-(3-(trifluoromethyl)phenyl)oxazole-4-carboxamide], with 5.6 nM; and `CCOCc1coc(Cn2ncc(NC(=O)c3nc(C)oc3-c3cccc(C)c3)n2)n1` [Example 14, N-(2-((4-(ethoxymethyl)oxazol-2-yl)methyl)-2H-1,2,3-triazol-4-yl)-2-methyl-5-(m-tolyl)oxazole-4-carboxamide], with 6.7 nM; and `COCc1coc(Cn2ncc(NC(=O)c3nc(C)oc3-c3cccc(OC)c3)n2)n1` [Example 8, N-(2-((4-(Methoxymethyl)oxazol-2-yl)methyl)-2H-1,2,3-triazol-4-yl)-5-(3-methoxyphenyl)-2-methyloxazole-4-carboxamide], with 8.8 nM.
On the same count and under the same terms, then `COCc1coc(Cn2ncc(NC(=O)c3ncoc3-c3ccccc3)n2)n1` [Example 13, N-(2-((4-(Methoxymethyl)oxazol-2-yl)methyl)-2H-1,2,3-triazol-4-yl)-5-phenyloxazole-4-carboxamide], with 5 nM; and `COCc1coc(Cn2ncc(NC(=O)c3nc(C)oc3-c3cccc(Cl)c3)n2)n1` [Example 4, 5-(3-Chlorophenyl)-N-(2-((4-(methoxymethyl)oxazol-2-yl)methyl)-2H-1,2,3-triazol-4-yl)-2-methyloxazole-4-carboxamide], with 2.1 nM.
Same read-out and setting: then `COCc1coc(Cn2ncc(NC(=O)c3nc(C)oc3-c3ccccc3)n2)n1` [Example 3, N-(2-((4-(Methoxymethyl)oxazol-2-yl)methyl)-2H-1,2,3-triazol-4-yl)-2-methyl-5-phenyloxazole-4-carboxamide], with 4.3 nM.

The same assay, now with this note: HEK293-hALXR-Gα16 cells; Table 2, compound failing within formula I of WO 2009/077990.
Take `CC(=O)c1nc(Cn2ncc(NC(=O)c3ncoc3-c3ccccc3)n2)cs1` [example 45]: the EC50 came out at 93 nM.
As for `CC(=O)c1csc(Cn2ncc(NC(=O)c3ncoc3-c3ccccc3)n2)n1` [example 39], the half-maximal effective concentration (EC50) is 8.1 nM.
For the molecule `CC(=O)c1cnc(Cn2ncc(NC(=O)c3ncoc3-c3ccccc3)n2)s1` [example 73], the 50% effective concentration (EC50) was determined as 88 nM.
Same read-out and setting: then `CC(=O)c1nc(Cn2ncc(NC(=O)c3nc(C)oc3-c3cccc(C)c3)n2)co1`, with 0.9 nM; and `CC(=O)c1ncc(Cn2ncc(NC(=O)c3ncoc3-c3ccccc3)n2)s1` [example 67], with 73 nM.
Turning to `CC(=O)c1nc(Cn2ncc(NC(=O)c3ncoc3-c3ccccc3)n2)co1`, the 50% effective concentration (EC50) was 1.5 nM.

Still in this assay, the particulars now being: HEK293-hALXR-Gα16 cells; Table 2, reference compounds.
`COCc1cnc(Cn2ncc(NC(=O)c3nc(C)oc3-c3cccc(C)c3)n2)s1` [reference compound 2, N-(2-((5-(Methoxymethyl)thiazol-2-yl)methyl)-2H-1,2,3-triazol-4-yl)-2-methyl-5-(m-tolyl)oxazole-4-carboxamide]: the EC50 worked out at 2540 nM.
Turning to `COCc1ncc(Cn2ncc(NC(=O)c3ncoc3-c3ccccc3)n2)s1` [reference compound 7, N-(2-((2-(methoxymethyl)thiazol-5-yl)methyl)-2H-1,2,3-triazol-4-yl)-5-phenyloxazole-4-carboxamide], the EC50 came to 8130 nM.
For the molecule `COCc1cnc(Cn2ncc(NC(=O)c3ncoc3-c3ccccc3)n2)s1` [reference compound 8, N-(2-((5-(methoxymethyl)thiazol-2-yl)methyl)-2H-1,2,3-triazol-4-yl)-5-phenyloxazole-4-carboxamide], the EC50 amounted to 5950 nM.
The same measure, in the same setting: then `COCc1ccc(Cn2ncc(NC(=O)c3ncoc3-c3ccccc3)n2)o1` [reference compound 3, N-(2-((5-(methoxymethyl)furan-2-yl)methyl)-2H-1,2,3-triazol-4-yl)-5-phenyloxazole-4-carboxamide], with 498 nM.
Regarding `COCc1ncc(Cn2ncc(NC(=O)c3nc(C)oc3-c3cccc(C)c3)n2)s1` [reference compound 1, N-(2-((2-(Methoxymethyl)thiazol-5-yl)methyl)-2H-1,2,3-triazol-4-yl)-2-methyl-5-(m-tolyl)oxazole-4-carboxamide], the EC50 turned out to be 4810 nM.
As for `COCc1ccc(Cn2ncc(NC(=O)c3ncoc3-c3ccccc3)n2)s1` [reference compound 4, N-(2-((5-(methoxymethyl)thiophen-2-yl)methyl)-2H-1,2,3-triazol-4-yl)-5-phenyloxazole-4-carboxamide], the EC50 was 2300 nM.
Still for that read-out and setting: then `COCc1nc(Cn2ncc(NC(=O)c3nc(C)oc3-c3cccc(C)c3)n2)co1` [reference compound 10, N-(2-((2-(Methoxymethyl)oxazol-4-yl)methyl)-2H-1,2,3-triazol-4-yl)-2-methyl-5-(m-tolyl)oxazole-4-carboxamide], with 8.1 nM; and `COC(C)(C)c1nc(Cn2ncc(NC(=O)c3ncoc3-c3ccccc3)n2)co1` [reference compound 9, N-(2-((2-(2-methoxypropan-2-yl)oxazol-4-yl)methyl)-2H-1,2,3-triazol-4-yl)-5-phenyloxazole-4-carboxamide], with 685 nM; and `COCc1csc(Cn2ncc(NC(=O)c3ncoc3-c3ccccc3)n2)n1` [reference compound 5, N-(2-((4-(methoxymethyl)thiazol-2-yl)methyl)-2H-1,2,3-triazol-4-yl)-5-phenyloxazole-4-carboxamide], with 48 nM.
Consider `COCc1nc(Cn2ncc(NC(=O)c3ncoc3-c3ccccc3)n2)cs1` [reference compound 6, N-(2-((2-(methoxymethyl)thiazol-4-yl)methyl)-2H-1,2,3-triazol-4-yl)-5-phenyloxazole-4-carboxamide], for which the EC50 was found to be 146 nM.
